Drawing on patent publication US5532372A, “Imide derivatives, and their production and use” (Sumitomo Pharmaceuticals Company, Ltd., priority 1990, dated 1996), this text covers inhibition and ED50 for 7 molecules.

One data set has as its target T1, dopamine D2 receptor (Rattus norvegicus, UniProt P61169).
T1 construct: from tissue; host or cells: rat corpus striatum, membrane fractions
Nature of the data set: Dopamine D2 receptor binding assay (in vitro), [3H] raclopride. Conditions: at the concentration of 0.01 μM; Table 3; read-out: Antipsychotic activity (% inhibition), inhibition of [3H] raclopride binding to D2 receptors.

Another data set relates to mice. Description: Anti-climbing activity (in vivo), climbing behavior induced by apomorphine in mice. Conditions: Mus musculus, 1 h, read-out: ED50 (50% suppressive dose) of climbing behavior. On the set-up: species or system mice (ddY strain male). From the text: (ii) Anti-climbing activity (in vivo)
This activity is examined through the anti-climbing behavior test, i.e. the test for suppressing the climbing behavior induced by apomorphine in mice.
A designed amount of the test compound is orally administered to several groups of ddY strain male mice (bodyweight, 20 to 25 g; one group, 5 mice), and each of the animals is placed in an individual column cage of 12 cm in diameter and 14 cm in height having metal poles (each pole, 2 mm in diameter) vertically installed and arranged along the periphery with intervals of 1 cm. After 60 minutes, apomorphine (1.0 mg/kg) is subcutaneously injected, and the behavior is observed during 10 to 20 minutes.
0 All the paws are on the floor
1 only forepaws seize the pole of the cage
2 All the paws seize the pole of the cage;
climbing behavior observed discontinuously
3 Continuous climbing behavior observed

The nature of data set [1]: Catalepsy inducing activity (extrapyramidal side-effect). On the set-up: species or system male mice. The note with it: mouse, in vivo; oral, one hour later, mice; Table 5. From the text: A designated amount of the test compounds is orally administered to male mice, and one hour later a pair of forepaws are forcedly hanged on an iron pipe (diameter, 2.5 mm) horizontally set at a height of 5 cm. At least one cataleptic state of more than 30 second per three trials is regarded as positive.

A further data set is described as follows: in vivo. The note with it: mouse, po.
Where [2] appears, read: oral, 60 minutes before apomorphine (1.0 mg/kg s.c.), mice, Table 4.

Where two headings read alike, the source gives them in different places. Where only a bound is given, the exact number is not on record here.

T1 sequence (P61169 whole entry): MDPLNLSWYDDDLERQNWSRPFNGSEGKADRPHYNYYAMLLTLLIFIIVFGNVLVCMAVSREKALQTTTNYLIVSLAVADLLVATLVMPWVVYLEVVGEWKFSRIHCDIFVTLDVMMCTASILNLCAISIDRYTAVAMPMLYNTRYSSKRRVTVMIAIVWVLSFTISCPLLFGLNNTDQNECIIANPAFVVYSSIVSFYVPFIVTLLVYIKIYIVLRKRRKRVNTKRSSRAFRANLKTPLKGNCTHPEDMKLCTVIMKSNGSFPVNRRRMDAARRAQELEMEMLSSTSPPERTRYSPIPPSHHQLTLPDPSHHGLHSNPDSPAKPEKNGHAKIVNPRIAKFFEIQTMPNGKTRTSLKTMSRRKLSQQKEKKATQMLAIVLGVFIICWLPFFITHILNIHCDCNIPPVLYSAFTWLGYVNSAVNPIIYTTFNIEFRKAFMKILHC

As a reminder, the inhibition is the change of the read-out against control, counted positive when it falls. Regarding `O=C(c1ccc(F)cc1)C1CCN(C[C@@H]2C[C@H]2CN2C(=O)[C@H]3CCCC[C@H]3C2=O)CC1` (relative stereo) [compound 161], at dopamine D2 receptor, the inhibition at 0.01 µM was 24%.

By ED50 is commonly meant the midpoint of the dose-response relation. As to `CN(C)CCCN1c2ccccc2Sc2ccc(Cl)cc21` [Chlorpromazine, reference compound], in the data set with mice (po), the ED50 was found to be 4.2 mg/kg. In data set [1], this molecule registered an ED50 at 1 h of 18 mg/kg.

Consider `O=C(CCCN1CCC(O)(c2ccc(Cl)cc2)CC1)c1ccc(F)cc1` [Haloperidol, reference compound], for which the ED50 in the data set with mice (setting [2]) worked out at 0.67 mg/kg. Also, the ED50 at 1 h is 3.1 mg/kg in data set [1] and 4.1 mg/kg in “in vivo”.

For the molecule `O=C1[C@H]2CCCC[C@H]2C(=O)N1C[C@@H]1C[C@H]1CN1CCN(c2nsc3ccccc23)CC1` (relative stereo) [Compound No. 107], the inhibition at 0.01 µM on dopamine D2 receptor stood at 71%. Moreover, the ED50 with mice (setting [2]) came to 26.5 mg/kg.

As for `O=C1[C@@H]2[C@H]3CC[C@H](C3)[C@@H]2C(=O)N1C[C@@H]1C[C@H]1CN1CCN(c2ncccn2)CC1` (relative stereo) [compound 163], the inhibition at 0.01 µM at dopamine D2 receptor is 11%.

As for `O=C1[C@@H]2[C@H]3CC[C@H](C3)[C@@H]2C(=O)N1C[C@@H]1CCCC[C@H]1CN1CCN(c2nsc3ccccc23)CC1` (relative stereo) [Compound No. 101], the ED50 in the data set on mice (setting [2]) came to 10.3 mg/kg. Besides, the ED50 at 1 h in data set [1] is 747 mg/kg; in the data set “in vivo”, over 1000 mg/kg.

Take `O=C1[C@@H]2[C@H]3CC[C@H](C3)[C@@H]2C(=O)N1C1CCCC(CN2CCN(c3nsc4ccccc34)CC2)C1` (stereo partly shown) [Compound No. 106]: the inhibition at 0.01 µM on dopamine D2 receptor stood at 90%.
